Each structure is given as a SMILES string. Active and inactive are the calls of the source. The calls are words filed in the database; no cut-off is given here.

Assay [1] addresses T1, DNA topoisomerase II (Homo sapiens) (UniProt P11388+Q02880). Briefly: Inhibition of human Top2 assessed as decrease in intensity of decatenated DNA using catenated KDNA at 0.5 to 10 uM. It is filed as protein assay. The conditions noted are these: dose 0.5-10 µM.
Assay [2] has as its target T1, DNA topoisomerase II (Homo sapiens). The assay is described as follows: Inhibition of human Top2 assessed as decrease in enzyme mediated DNA cleavage at site A at low concentration. The assay is classed as protein assay.
The target is the same in assay [3]. Briefly: Inhibition of human Top2 assessed as decrease in enzyme mediated DNA cleavage at site A at high concentration. It is filed as protein assay.
Assay [4] has as its target DNA topoisomerase 2-alpha (Homo sapiens) (UniProt P11388). The assay is described as follows: Inhibition of human Top2 assessed as decrease in intensity of decatenated DNA using catenated KDNA at 2 to 50 uM. The conditions noted are these: dose 2-50 µM.
The target of assay [5] is T1, DNA topoisomerase II (Homo sapiens). The assay is described as follows: Inhibition of human Top2 assessed as decrease in enzyme mediated DNA cleavage at site A at 0.5 to 10 uM. The assay is classed as protein assay. Particulars: dose 0.5-10 µM.

Sequence of DNA topoisomerase 2-alpha (Homo sapiens) (P11388 whole entry): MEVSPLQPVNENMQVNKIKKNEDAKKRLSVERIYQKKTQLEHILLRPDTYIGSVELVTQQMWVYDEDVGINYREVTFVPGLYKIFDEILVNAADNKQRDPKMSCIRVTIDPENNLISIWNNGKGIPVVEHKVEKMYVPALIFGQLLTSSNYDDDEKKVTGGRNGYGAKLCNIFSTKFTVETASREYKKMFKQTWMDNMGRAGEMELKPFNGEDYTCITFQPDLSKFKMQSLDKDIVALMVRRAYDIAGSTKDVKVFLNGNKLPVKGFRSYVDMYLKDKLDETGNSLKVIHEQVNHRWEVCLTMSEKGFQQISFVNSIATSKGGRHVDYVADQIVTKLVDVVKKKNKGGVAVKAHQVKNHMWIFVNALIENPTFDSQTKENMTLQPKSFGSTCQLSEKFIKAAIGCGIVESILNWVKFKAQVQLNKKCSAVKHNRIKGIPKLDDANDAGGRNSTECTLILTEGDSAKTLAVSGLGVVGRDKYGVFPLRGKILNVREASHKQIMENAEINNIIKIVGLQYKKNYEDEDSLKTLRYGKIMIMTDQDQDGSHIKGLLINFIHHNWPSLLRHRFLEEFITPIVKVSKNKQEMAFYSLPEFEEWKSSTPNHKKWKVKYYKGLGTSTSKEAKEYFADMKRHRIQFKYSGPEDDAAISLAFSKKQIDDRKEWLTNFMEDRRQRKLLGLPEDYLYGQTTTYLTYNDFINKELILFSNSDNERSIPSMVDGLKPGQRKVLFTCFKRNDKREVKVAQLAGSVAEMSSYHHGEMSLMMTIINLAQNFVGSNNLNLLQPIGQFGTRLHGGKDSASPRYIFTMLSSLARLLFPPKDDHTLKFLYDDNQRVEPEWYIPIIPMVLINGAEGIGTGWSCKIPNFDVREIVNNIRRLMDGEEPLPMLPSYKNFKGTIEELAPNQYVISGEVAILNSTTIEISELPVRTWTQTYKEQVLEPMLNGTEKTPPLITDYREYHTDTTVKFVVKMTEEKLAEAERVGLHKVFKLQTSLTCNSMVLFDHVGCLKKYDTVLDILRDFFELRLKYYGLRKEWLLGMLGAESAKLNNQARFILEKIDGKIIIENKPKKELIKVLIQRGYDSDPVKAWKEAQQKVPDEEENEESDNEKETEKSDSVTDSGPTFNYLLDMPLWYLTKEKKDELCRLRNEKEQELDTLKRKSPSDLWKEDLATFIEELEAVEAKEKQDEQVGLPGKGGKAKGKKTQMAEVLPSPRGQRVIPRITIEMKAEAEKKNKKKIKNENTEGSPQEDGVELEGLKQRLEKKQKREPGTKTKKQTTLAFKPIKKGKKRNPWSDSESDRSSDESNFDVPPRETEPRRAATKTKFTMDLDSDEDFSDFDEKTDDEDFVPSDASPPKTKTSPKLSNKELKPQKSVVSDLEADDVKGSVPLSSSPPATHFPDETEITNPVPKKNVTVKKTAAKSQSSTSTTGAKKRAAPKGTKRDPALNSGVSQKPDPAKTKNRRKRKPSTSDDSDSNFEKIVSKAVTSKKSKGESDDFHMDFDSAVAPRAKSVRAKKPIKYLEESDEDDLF

Consider `N[C@H]1CCN(c2c(F)cc3c(=O)c(C(=O)O)cn4c3c2Oc2ccccc2-4)C1`, for which the result in assay [1] and in assay [2] was Active. In addition, in assay [3], the result was inactive.

As to `N[C@H]1CCN(c2c(F)cc3c(=O)c(C(=O)O)cn4c3c2Oc2cc3c(cc2-4)oc2ccccc23)C1`, the fold change (FC) in assay [4] amounted to 5. Further, in assay [5], the outcome was Active.

The record behind these values is ChEMBL document CHEMBL5223131, “A first-in-class clinical G-quadruplex-targeting drug. The bench-to-bedside translation of the fluoroquinolone QQ58 to CX-5461 (Pidnarulex)” (Bioorg Med Chem Lett, 2022).
